Reference: patent publication US8003801B2 (The Scripps Research Institute, priority 2005, dated 2011)
Like-named read-outs stand apart in the source and are kept apart here.

Columns and labels:
[1] = tested on: KB-31 human epidermoid cancer cell line; test: 72 hour growth-inhibition (cytotoxicity) assay, KB-31 cells; type: cell-based; conditions: Homo sapiens
[2] = tested on: 1A9/A8, EpoA-resistant 1A9 cell line (β274 Thr→Ile); test: 72 hour growth-inhibition (cytotoxicity) assay, 1A9/A8 cells; type: cell-based, human; conditions: for IC50: Homo sapiens, 1A9; for RAEpoB (relative activity), 1A9/A8: ratio of IC50 of EpoB to IC50 of the tested compound in the concurrent assay; for RRp (relative resistance), 1A9/A8: IC50 of 1A9/A8 divided by IC50 of the parental cell line
[3] = tested on: 1A9/PTX10, Taxol-resistant 1A9 cell line (β270 Phe→Val); test: 72 hour growth-inhibition (cytotoxicity) assay, 1A9/PTX10 cells; type: cell-based, human; conditions: for IC50: Homo sapiens, 1A9/ptx-10; for RAEpoB (relative activity), 1A9/PTX10: ratio of IC50 of EpoB to IC50 of the tested compound in the concurrent assay; for RRp (relative resistance), 1A9/PTX10: IC50 of 1A9/PTX10 divided by IC50 of the parental cell line 1A9
[4] = tested on: 1A9 human ovarian cancer cell line; test: 72 hour growth-inhibition (cytotoxicity) assay, 1A9 cells; type: cell-based; conditions: for IC50: Homo sapiens, 1A9; for RAEpoB (relative activity), 1A9: ratio of IC50 of EpoB to IC50 of the tested compound in the concurrent assay
[5] = tested on: KB-8511, Taxol-resistant (Pgp-overexpression) KB cell line; test: 72 hour growth-inhibition (cytotoxicity) assay, KB-8511 cells
Experimental: In addition, further cytotoxicity studies were carried out using a pair of drug-sensitive parental human epidermoid carcinoma cells (KB-31) and its Taxol™-resistant Pgp-overexpressing subline (KB-5811).

[6] = tested on: drug-sensitive and drug-resistant human cancer cell lines; test: Cytotoxicity assays across the panel of cell lines (summary in words); type: cell-based; conditions: summary of Tables 1A-1C
[7] = tested on: A2780/AD10, drug-resistant clone of human ovarian carcinoma A2780 overexpressing P-glycoprotein; test: 72 hour growth-inhibition (cytotoxicity) assay, A2780/AD10 cells; type: cell-based; conditions: for IC50: Homo sapiens, A2780, 72 hour growth inhibition, sulforhodamine-B staining, mean of 3-5 experiments ± SEM; for RRp (relative resistance), A2780/AD10: IC50 of A2780/AD10 divided by IC50 of the parental cell line
[8] = KB 3-1, read-out: IC50, KB-31 (Table 2)
[9] = Table 2, tested epothilone, unit from Table 1A note a, read-out: IC50, 1A9/A8 (Table 2)
[10] = Table 2, tested epothilone, unit from Table 1A note a, read-out: IC50, 1A9/PTX10 (Table 2)
[11] = Table 2, tested epothilone, unit from Table 1A note a, read-out: IC50, 1A9 (Table 2)
[12] = read-out: IC50, KB-5811 (Table 2), Table 2, tested epothilone, cell line KB-5811, unit from Table 1A note a
[13] = KB 3-1, 72 h, read-out: KB-31 IC50
[14] = 72 hour growth inhibition, sulforhodamine-B staining, mean of 3-5 experiments ± SEM, read-out: 1A9/A8 IC50
[15] = 72 hour growth inhibition, sulforhodamine-B staining, mean of 3-5 experiments ± SEM, read-out: 1A9/PTX10 IC50
[16] = 72 hour growth inhibition, sulforhodamine-B staining, mean of 3-5 independent experiments ± standard error of the mean, read-out: 1A9 IC50
[17] = read-out: KB-8511 IC50, 72 hour growth inhibition, methylene blue staining, mean of 3-5 experiments ± SEM

SMILES | IC50 [1, 8] | IC50 [2, 9] | RAEpoB (relative activity), 1A9/A8 [2] | IC50 [3, 10] | RAEpoB (relative activity), 1A9/PTX10 [3] | IC50 [4, 11] | RAEpoB (relative activity), 1A9 [4] | IC50 [5, 12] | cytotoxicity across the tested cell lines, in words [6] | IC50 [1, 13] | IC50 [2, 14] | RRp (relative resistance), 1A9/A8 [2] | IC50 [3, 15] | RRp (relative resistance), 1A9/PTX10 [3] | IC50 [7] | RRp (relative resistance), A2780/AD10 [7] | IC50 [4, 16] | IC50 [5, 17]
CSc1nc(/C=C(\C)[C@@H]2C[C@@H]3C[C@]3(C)CCC[C@H](C)[C@H](O)[C@@H](C)C(=O)C(C)(C)[C@@H](O)CC(=O)O2)cs1 [Compound 4, reference compound] | 0.2 nM | 2.4 nM | 2.7 | 0.7 nM | 4.4 | 0.1 nM | 6.0 | 0.12 nM |  |  |  |  |  |  |  |  |  | 
CSCc1nc(/C=C(\C)[C@@H]2C[C@@H]3O[C@]3(C)CCC[C@H](C)[C@H](O)[C@@H](C)C(=O)C(C)(C)[C@@H](O)CC(=O)O2)cs1 [Compound 5] |  |  |  |  |  |  |  |  | less potent than EpoB, exhibited high potency against several of the tested cell lines | 1.38 ± 0.05 nM | 18.6 ± 11.3 nM | 5.2 | 43.3 ± 12 nM | 12.0 | 82.2 ± 49.6 nM | 15.2 | 3.6 ± 1.4 nM | 1.97 ± 0.25 nM
CC(=O)SCc1nc(/C=C(\C)[C@@H]2C[C@@H]3O[C@]3(C)CCC[C@H](C)[C@H](O)[C@@H](C)C(=O)C(C)(C)[C@@H](O)CC(=O)O2)cs1 [Compound 6] |  |  |  |  |  |  |  |  | less potent than EpoB, exhibited high potency against several of the tested cell lines | 1.18 ± 0.12 nM | 49.8 ± 34.5 nM | 9.2 | 28.2 ± 9.3 nM | 5.2 | 8.6 ± 3.3 nM | 45.3 | 5.4 ± 1.1 nM | 8.39 ± 1.37 nM
C/C(=C\c1nc2ccccc2s1)[C@@H]1C[C@@H]2O[C@]2(C)CCC[C@H](C)[C@H](O)[C@@H](C)C(=O)C(C)(C)[C@@H](O)CC(=O)O1 [Compound 7] | 0.21 nM | 0.7 nM | 14.3 | 2.6 nM | 3.0 | 0.19 nM | 5.2 | 0.08 nM | excellent cytotoxicity across the range of cell lines, being more potent than EpoB | 0.21 ± 0.07 nM | 0.7 ± 0.4 nM | 3.7 | 2.6 ± 2.5 nM | 13.7 | 707 nM | 7.4 | 0.19 ± 0.1 nM | 0.08 ± 0.04 nM
C/C(=C\c1c(I)ncn1C)[C@@H]1C[C@@H]2O[C@]2(C)CCC[C@H](C)[C@H](O)[C@@H](C)C(=O)C(C)(C)[C@@H](O)CC(=O)O1 [Compound 10] |  |  |  |  |  |  |  |  |  | > 1000 nM | > 750 nM |  | > 750 nM |  | 1070 nM | 5.9 | > 750 nM | > 1000 nM
C/C(=C\c1cn(C)cn1)[C@@H]1C[C@@H]2O[C@]2(C)CCC[C@H](C)[C@H](O)[C@@H](C)C(=O)C(C)(C)[C@@H](O)CC(=O)O1 [Compound 11] |  |  |  |  |  |  |  |  |  | 277 ± 122 nM | 150 nM | 0.8 | > 750 nM |  | > 750 nM |  | 181 ± 81.6 nM | > 1000 nM
C/C(=C\c1nc(Br)c(Br)n1C)[C@@H]1C[C@@H]2O[C@]2(C)CCC[C@H](C)[C@H](O)[C@@H](C)C(=O)C(C)(C)[C@@H](O)CC(=O)O1 [Compound 12] |  |  |  |  |  |  |  |  |  | > 1000 nM | > 750 nM |  | > 750 nM |  | 574 nM |  | > 750 nM | > 1000 nM
CSc1nc(/C=C(\C)[C@@H]2C[C@@H]3O[C@]3(C)CCC[C@H](C)[C@H](O)[C@@H](C)C(=O)C(C)(C)[C@@H](O)CC(=O)O2)c(SC)n1C [Compound 13] |  |  |  |  |  |  |  |  |  | 240 ± 34 nM | 574 nM |  | > 750 nM |  | 1.3 ± 0.3 nM | 2.6 | > 750 nM | 247 ± 47.9 nM
